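48-hour exposure; five concentrations; linearly interpolated endpoints. TGI: concentration producing complete growth inhibition.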
Key:
Assay in all cases: NCI-60 cell line screen, 48 h
786-0 renal = test system: 786-0 renal
A498 renal = test system: A498 renal
A549 NSCLC = test system: A549 NSCLC
ACHN renal = test system: ACHN renal
COLO 205 colon = test system: COLO 205 colon
DU-145 prostate = test system: DU-145 prostate
EKVX NSCLC = test system: EKVX NSCLC
HCC-2998 colon = test system: HCC-2998 colon
HCT-116 colon = test system: HCT-116 colon
HCT-15 colon = test system: HCT-15 colon
HS 578T breast = test system: HS 578T breast
HT29 colon = test system: HT29 colon
IGROV1 ovarian = test system: IGROV1 ovarian
KM12 colon = test system: KM12 colon
M14 melanoma = test system: M14 melanoma
MALME-3M melanoma = test system: MALME-3M melanoma
MCF7 breast = test system: MCF7 breast
MDA-MB-231 breast = test system: MDA-MB-231 breast
MDA-MB-435 = test system: MDA-MB-435
MDA-N = test system: MDA-N
NCI-H226 lung = test system: NCI-H226 lung
NCI-H23 lung = test system: NCI-H23 lung
NCI-H460 lung = test system: NCI-H460 lung
NCI/ADR-RES ovarian = test system: NCI/ADR-RES ovarian
OVCAR-4 ovarian = test system: OVCAR-4 ovarian
OVCAR-5 ovarian = test system: OVCAR-5 ovarian
PC-3 prostate = test system: PC-3 prostate
RXF 393 renal = test system: RXF 393 renal
SF-268 CNS = test system: SF-268 CNS
SF-539 CNS = test system: SF-539 CNS
SK-MEL-2 melanoma = test system: SK-MEL-2 melanoma
SK-MEL-28 melanoma = test system: SK-MEL-28 melanoma
SK-OV-3 ovarian = test system: SK-OV-3 ovarian
SN12C renal = test system: SN12C renal
SNB-75 CNS = test system: SNB-75 CNS
SW-620 colon = test system: SW-620 colon
T-47D breast = test system: T-47D breast
TK-10 renal = test system: TK-10 renal
UACC-257 melanoma = test system: UACC-257 melanoma
UACC-62 melanoma = test system: UACC-62 melanoma
CAKI-1 renal = test system: CAKI-1 renal
CCRF-CEM leukemia = test system: CCRF-CEM leukemia
HL-60(TB) leukemia = test system: HL-60(TB) leukemia
HOP-92 NSCLC = test system: HOP-92 NSCLC
K-562 leukemia = test system: K-562 leukemia
LOX IMVI melanoma = test system: LOX IMVI melanoma
MOLT-4 leukemia = test system: MOLT-4 leukemia
NCI-H522 lung = test system: NCI-H522 lung
OVCAR-8 ovarian = test system: OVCAR-8 ovarian
RPMI-8226 leukemia = test system: RPMI-8226 leukemia
SF-295 CNS = test system: SF-295 CNS
SK-MEL-5 melanoma = test system: SK-MEL-5 melanoma
SNB-19 CNS = test system: SNB-19 CNS
U251 CNS = test system: U251 CNS
UO-31 renal = test system: UO-31 renal

Question: For `CCCCCCCCCCCCCCCC1(OC)C[N+](C)(C)CCO1` (configuration not stated), which TGI (786-0 renal) is on record?
Answer: 2.05 µM

Question: What about the TGI (A498 renal) of the same compound?
Answer: 67.5 µM

Question: What about the TGI (A549 NSCLC) of the same compound?
Answer: 3.45 µM

Question: And the TGI (ACHN renal)?
Answer: 5.8 µM

Question: What about the TGI (COLO 205 colon) of the same compound?
Answer: 2.58 µM

Question: And the TGI (DU-145 prostate)?
Answer: 5.9 µM

Question: What about the TGI (EKVX NSCLC) of the same compound?
Answer: 5.76 µM

Question: And the TGI (HCC-2998 colon)?
Answer: 6.18 µM

Question: What about the TGI (HCT-116 colon) of the same compound?
Answer: 3.38 µM

Question: What about the TGI (HCT-15 colon) of the same compound?
Answer: 28.9 µM

Question: What about the TGI (HS 578T breast) of the same compound?
Answer: 7.22 µM

Question: And the TGI (HT29 colon)?
Answer: 2.56 µM

Question: And the TGI (IGROV1 ovarian)?
Answer: 3.16 µM

Question: What about the TGI (KM12 colon) of the same compound?
Answer: 1.96 µM

Question: What about the TGI (M14 melanoma) of the same compound?
Answer: 3.13 µM

Question: And the TGI (MALME-3M melanoma)?
Answer: 4.7 µM

Question: And the TGI (MCF7 breast)?
Answer: 0.901 µM

Question: What about the TGI (MDA-MB-231 breast) of the same compound?
Answer: 4.8 µM

Question: And the TGI (MDA-MB-435)?
Answer: 3.63 µM

Question: What about the TGI (MDA-N) of the same compound?
Answer: 4.99 µM

Question: What about the TGI (NCI-H226 lung) of the same compound?
Answer: 3.6 µM

Question: What about the TGI (NCI-H23 lung) of the same compound?
Answer: 2.81 µM

Question: And the TGI (NCI-H460 lung)?
Answer: 5.57 µM

Question: What about the TGI (NCI/ADR-RES ovarian) of the same compound?
Answer: 41.7 µM

Question: What about the TGI (OVCAR-4 ovarian) of the same compound?
Answer: 5.96 µM

Question: What about the TGI (OVCAR-5 ovarian) of the same compound?
Answer: 6.08 µM

Question: And the TGI (PC-3 prostate)?
Answer: 6.21 µM

Question: And the TGI (RXF 393 renal)?
Answer: 2.39 µM

Question: And the TGI (SF-268 CNS)?
Answer: 5.04 µM

Question: What about the TGI (SF-539 CNS) of the same compound?
Answer: 3.49 µM

Question: What about the TGI (SK-MEL-2 melanoma) of the same compound?
Answer: 7.63 µM

Question: And the TGI (SK-MEL-28 melanoma)?
Answer: 6.33 µM

Question: What about the TGI (SK-OV-3 ovarian) of the same compound?
Answer: 21.8 µM

Question: What about the TGI (SN12C renal) of the same compound?
Answer: 3.94 µM

Question: What about the TGI (SNB-75 CNS) of the same compound?
Answer: 0.445 µM

Question: What about the TGI (SW-620 colon) of the same compound?
Answer: 26.4 µM

Question: And the TGI (T-47D breast)?
Answer: 33.6 µM

Question: What about the TGI (TK-10 renal) of the same compound?
Answer: 5.33 µM

Question: What about the TGI (UACC-257 melanoma) of the same compound?
Answer: 4.85 µM

Question: And the TGI (UACC-62 melanoma)?
Answer: 7.64 µM

Question: Which TGI (786-0 renal) does the source give for `Cc1ccccc1NC(=O)Cc1csc(N=Nc2c(O)[nH]c3ccccc23)n1` here?
Answer: > 100 µM

Question: What about the TGI (A498 renal) of the same compound?
Answer: > 100 µM

Question: What about the TGI (A549 NSCLC) of the same compound?
Answer: > 100 µM

Question: What about the TGI (ACHN renal) of the same compound?
Answer: > 100 µM

Question: What about the TGI (CAKI-1 renal) of the same compound?
Answer: 37.6 µM

Question: What about the TGI (CCRF-CEM leukemia) of the same compound?
Answer: > 100 µM

Question: And the TGI (COLO 205 colon)?
Answer: > 100 µM

Question: What about the TGI (DU-145 prostate) of the same compound?
Answer: > 100 µM

Question: And the TGI (EKVX NSCLC)?
Answer: > 100 µM

Question: What about the TGI (HCT-116 colon) of the same compound?
Answer: > 100 µM

Question: And the TGI (HCT-15 colon)?
Answer: > 100 µM

Question: And the TGI (HL-60(TB) leukemia)?
Answer: 62.1 µM

Question: What about the TGI (HOP-92 NSCLC) of the same compound?
Answer: > 100 µM

Question: And the TGI (HS 578T breast)?
Answer: 84.9 µM

Question: What about the TGI (HT29 colon) of the same compound?
Answer: > 100 µM

Question: And the TGI (IGROV1 ovarian)?
Answer: > 100 µM

Question: And the TGI (K-562 leukemia)?
Answer: > 100 µM

Question: And the TGI (KM12 colon)?
Answer: > 100 µM

Question: What about the TGI (LOX IMVI melanoma) of the same compound?
Answer: > 100 µM

Question: What about the TGI (M14 melanoma) of the same compound?
Answer: > 100 µM

Question: What about the TGI (MALME-3M melanoma) of the same compound?
Answer: > 100 µM

Question: What about the TGI (MCF7 breast) of the same compound?
Answer: > 100 µM

Question: What about the TGI (MDA-MB-231 breast) of the same compound?
Answer: > 100 µM

Question: What about the TGI (MDA-MB-435) of the same compound?
Answer: > 1 µM

Question: What about the TGI (MDA-N) of the same compound?
Answer: > 100 µM

Question: What about the TGI (MOLT-4 leukemia) of the same compound?
Answer: > 100 µM

Question: And the TGI (NCI-H226 lung)?
Answer: > 100 µM

Question: What about the TGI (NCI-H23 lung) of the same compound?
Answer: > 100 µM

Question: And the TGI (NCI-H460 lung)?
Answer: > 100 µM

Question: What about the TGI (NCI-H522 lung) of the same compound?
Answer: 41.2 µM

Question: And the TGI (NCI/ADR-RES ovarian)?
Answer: > 100 µM

Question: What about the TGI (OVCAR-4 ovarian) of the same compound?
Answer: 62.7 µM

Question: What about the TGI (OVCAR-5 ovarian) of the same compound?
Answer: > 100 µM

Question: And the TGI (OVCAR-8 ovarian)?
Answer: 43.1 µM

Question: What about the TGI (PC-3 prostate) of the same compound?
Answer: 37.2 µM

Question: What about the TGI (RPMI-8226 leukemia) of the same compound?
Answer: > 100 µM

Question: What about the TGI (RXF 393 renal) of the same compound?
Answer: 69.5 µM

Question: What about the TGI (SF-268 CNS) of the same compound?
Answer: > 100 µM

Question: What about the TGI (SF-295 CNS) of the same compound?
Answer: 38 µM

Question: What about the TGI (SF-539 CNS) of the same compound?
Answer: 32.3 µM

Question: And the TGI (SK-MEL-2 melanoma)?
Answer: > 100 µM

Question: And the TGI (SK-MEL-28 melanoma)?
Answer: > 1 µM

Question: What about the TGI (SK-MEL-5 melanoma) of the same compound?
Answer: > 100 µM

Question: And the TGI (SN12C renal)?
Answer: > 100 µM

Question: And the TGI (SNB-19 CNS)?
Answer: > 100 µM

Question: What about the TGI (SNB-75 CNS) of the same compound?
Answer: > 100 µM

Question: What about the TGI (SW-620 colon) of the same compound?
Answer: > 1 µM

Question: And the TGI (TK-10 renal)?
Answer: > 100 µM

Question: What about the TGI (U251 CNS) of the same compound?
Answer: > 1 µM

Question: What about the TGI (UACC-257 melanoma) of the same compound?
Answer: > 100 µM

Question: And the TGI (UACC-62 melanoma)?
Answer: > 100 µM

Question: And the TGI (UO-31 renal)?
Answer: > 100 µM
